What was measured:
Pseudomonas aeruginosa = assay: Broth microdilution MIC, Example 7 (NCL812 and analogues); format: cell-based; details: 24 hours; 1st and 2nd replicate rows
Escherichia coli = assay: as above; format: cell-based; details: 24 hours; 1st and 2nd replicate rows
S. pneumoniae isolates [1] = assay: Micro-broth dilution MIC, Example 5; format: cell-based, Streptococcus pneumoniae
Protocol: For all in vitro assays, fresh pneumococcal isolates were grown overnight (O/N) on horse blood agar (HBA) plates (39 g/L Columbia blood agar base [Oxoid] 5% [v/v] defribinated horse blood [Oxoid] at 37° C. with 5% supplemented CO2). Mueller-Hinton blood agar with 5% defibrinated sheep blood (MHSBA Roseworthy Media and Blood Service) was used for disk diffusion analysis as directed by Clinical Laboratory Standards Institute (CLSI) standards. Pneumococci were routinely grown in broth consisting of 4% lysed horse blood (LHB) with Cation Adjusted Mueller Hinton Broth (CAHMB, [Difco]) at 37° C. with 5% supplemented CO2. […] Isolates were stored in HSB at −80° C.
(§1) [Micro-broth dilutions and 96 well trays are prepared by the following method: 90 μL of 4% LHB:CAMHB is aliquotted into all wells using a multichannel pipette. 90 μL of working antimicrobial stocks were no serial diluted down the tray by a 1:2 dilution. Negative broth controls and dilution control were taken into account when planning the set up of a 96 well tray.] 10 μL of bacterial suspension was then added to the appropriate wells in the 96 well tray. Appropriate positive (no antimicrobial), negative (no antimicrobial or bacteria) and negative dilution (a serial dilution control of antimicrobial and broth) controls were included in each assay. […] The MBC was determined by a 99.95% inhibition of S. pneumoniae, taking into account the dilution factor. MICs and MBCs were determined in quadruplicate and the mode was taken as the representative value. The MIC50, MIC90 and MIC range and MBC50, MBC90 and MBC range were determined according to CLSI standards. The MIC50 and MIC90, or MBC50 and MBC90, are defined by the lowest concentrations which, when all the MICs and MBCs of the isolates are arranged from lowest to highest, inhibited the 50th and 90th percentile of the total amount of isolates, respectively.

MRSA = assay: Broth microdilution MIC, Example 7 (NCL812 and analogues); format: cell-based, Staphylococcus aureus
In short: (§2)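 Duplicates per isolate, repeated a third time if >one two-fold dilution apart. MIC50, MIC20 and range calculated per bacterial group.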

[2] = Bioassay ranking of the analogues tested; details: M + R (MRSA and VRE combined)
[3] = Visual analysis of solubility in diluents and media, Example 5; format: physicochemical
S. pneumoniae strain D39 = assay: MBC time kill studies (relative MBC at time points); format: cell-based, Streptococcus pneumoniae
From the text: MBC kill kinetics assays involved the preparation of three 96 well microtitre trays.

S. pneumoniae isolates [4] = assay: MBC, Example 5; format: cell-based, Streptococcus pneumoniae
Protocol: as §1

VRE = assay: Broth microdilution MIC, Example 7 (NCL812 and analogues); format: cell-based, Enterococcus spp.
In short: as §2

[5] = system: lipid synthesis in S. aureus ATCC 29213; assay: Macromolecular synthesis assay: lipid synthesis ([3H] glycerol); format: cell-based, Staphylococcus aureus
Protocol: Cells were grown at 35° C. overnight on Trypticase Soy agar. A colony from the plate was used to inoculate 10 ml of Mueller Hinton broth II (MHBII), and the culture was grown to early exponential growth phase (OD600==0.2 to 0.3) while incubating in a shaker at 35° C. and 200 rpm.
Bacterial cells were grown to early exponential growth phase in MHBII broth and added to 1.5 mL eppendorf tubes (in triplicate) containing various concentrations of test compound or control antibiotics as described above. Following a 5 min incubation at room temperature, [^3H] glycerol was added at 0.5 μCi per reaction.
Reactions were allowed to proceed at room temperature for 15 min and then stopped through the addition of 375 μL chloroform/methanol (1:2) followed by vortexing for 20 seconds after each addition. Chloroform (125 μL) was then added to each reaction, vortexed, followed by the addition of 125 μL dH2O and vortexing. Reactions were centrifuged at 13,000 rpm for 10 min, and then 150 μL of the organic phase was transferred to a scintillation vial and allowed to dry in a fume hood for at least 1 hr. Samples were then counted via liquid scintillation counting.

[6] = system: ATP release from S. aureus ATCC 29213; assay: ATP release assay (CellTiter-Glo); format: cell-based, Staphylococcus aureus; details: positive control; 8 fold the MIC (256 μg/mL); 30 min exposure
Protocol: The CellTiter-Glo Luminescent Cell Viability Assay (Promega) was utilized to measure the leakage of ATP from bacteria. […] The negative control received 2% DMSO, which represented the final DMSO concentration in each assay. After a 30 min exposure to drug, cells were sedimented by centrifugation and the supernatant was analyzed for the presence of ATP. Results were expressed as ATP concentration released to the medium (μM).

[7] = isolate WCH158, Table 22, CAMHB diluent for NCL062

**Q.** Which “MIC (μg/ml) at 24 hours, P. aeruginosa” value (Pseudomonas aeruginosa) does the source give for `C/C(=N\NC(=N)N/N=C(\C)c1ccc(Cl)cc1)c1ccc(Cl)cc1.Cl` [NCL062] here?
**A.** >128 µg/mL

**Q.** And the “MIC (μg/ml) at 24 hours, E. coli” value (Escherichia coli)?
**A.** >128 µg/mL

**Q.** What about the MIC (S. pneumoniae isolates [1]; A66.1) of the same compound?
**A.** 8 µg/mL

**Q.** What about the MIC (S. pneumoniae isolates [1]; D39) of the same compound?
**A.** 2 µg/mL

**Q.** And the “Relative MIC with media type for D39” value (S. pneumoniae isolates [1]; D39, 4% LHB:CAMHB)?
**A.** 4 µg/mL

**Q.** And the “Relative MIC with media type for D39” value (S. pneumoniae isolates [1]; D39, 10% horse serum-supplemented broth)?
**A.** 32 µg/mL

**Q.** What about the MIC (S. pneumoniae isolates [1]; EF3030) of the same compound?
**A.** 16 µg/mL

**Q.** What about the MIC (S. pneumoniae isolates [1]; L82016) of the same compound?
**A.** 8 µg/mL

**Q.** And the MIC (S. pneumoniae isolates [1]; P9)?
**A.** 4 µg/mL

**Q.** And the MIC (S. pneumoniae isolates [1]; P21)?
**A.** 4 µg/mL

**Q.** What about the “MIC of D39, stored pre-prepared micro-titer trays” value (S. pneumoniae isolates [1]; Storage condition 4° C.) of the same compound?
**A.** 4 µg/mL

**Q.** What about the “MIC of D39, stored pre-prepared micro-titer trays” value (S. pneumoniae isolates [1]; Storage condition −2° C.) of the same compound?
**A.** 4 µg/mL

**Q.** What about the MIC (S. pneumoniae isolates [1]; TIGR4) of the same compound?
**A.** 8 µg/mL

**Q.** What about the MIC (S. pneumoniae isolates [1]; WCH16) of the same compound?
**A.** 32 µg/mL

**Q.** What about the MIC (S. pneumoniae isolates [1]; WCH43) of the same compound?
**A.** 2 µg/mL

**Q.** What about the MIC (S. pneumoniae isolates [1]; WCH46) of the same compound?
**A.** 32 µg/mL

**Q.** And the MIC (S. pneumoniae isolates [1]; WCH57)?
**A.** 4 µg/mL

**Q.** What about the MIC (S. pneumoniae isolates [1]; WCH77) of the same compound?
**A.** 8 µg/mL

**Q.** And the MIC (S. pneumoniae isolates [1]; WCH86)?
**A.** 4 µg/mL

**Q.** And the MIC (S. pneumoniae isolates [1]; WCH89)?
**A.** 4 µg/mL

**Q.** And the MIC (S. pneumoniae isolates [1]; WCH92)?
**A.** 8 µg/mL

**Q.** And the MIC (S. pneumoniae isolates [1]; WCH137)?
**A.** 2 µg/mL

**Q.** And the MIC (S. pneumoniae isolates [1]; WCH158)?
**A.** 16 µg/mL

**Q.** What about the MIC (S. pneumoniae isolates [1]; WCH184) of the same compound?
**A.** 16 µg/mL

**Q.** What about the MIC (S. pneumoniae isolates [1]; WCH211) of the same compound?
**A.** 2 µg/mL

**Q.** What about the MIC (S. pneumoniae isolates [1]; WU2) of the same compound?
**A.** 16 µg/mL

**Q.** And the MIC50 (S. pneumoniae isolates [1]; all S. pneumoniae isolates)?
**A.** 8 µg/mL

**Q.** And the MIC90 (S. pneumoniae isolates [1]; all S. pneumoniae isolates)?
**A.** 32 µg/mL

**Q.** What about the “MIC range” value (S. pneumoniae isolates [1]; all S. pneumoniae isolates) of the same compound?
**A.** 2 to 32 µg/mL

**Q.** What about the MIC (S. pneumoniae isolates [1]; isolate A66.1, Table 22, CAMHB diluent for NCL062) of the same compound?
**A.** Confluent

**Q.** And the MIC (S. pneumoniae isolates [1]; isolate D39, Table 22, CAMHB diluent for NCL062)?
**A.** Confluent

**Q.** And the MIC (S. pneumoniae isolates [1]; isolate P21, Table 22, CAMHB diluent for NCL062)?
**A.** Confluent

**Q.** What about the MIC (S. pneumoniae isolates [1]; isolate WCH57, Table 22, CAMHB diluent for NCL062) of the same compound?
**A.** Confluent

**Q.** What about the MIC (S. pneumoniae isolates [1]; [7]) of the same compound?
**A.** Confluent

**Q.** What about the MIC (S. pneumoniae isolates [1]; isolate WU-2, Table 22, CAMHB diluent for NCL062) of the same compound?
**A.** Confluent

**Q.** What about the “activity against MRSA among analogues” value (MRSA; MIC testing, two MRSA strains) of the same compound?
**A.** greatest activity

**Q.** What about the MRSA (MRSA; bioassay ranking, MRSA) of the same compound?
**A.** 3 µg/mL

**Q.** What about the “MIC (μg/ml) at 24 hours, MRSA 1” value (MRSA; isolate MRSA 1, 24 hours, 1st and 2nd replicate rows) of the same compound?
**A.** 2 µg/mL

**Q.** What about the “MIC (μg/ml) at 24 hours, MRSA 2” value (MRSA; isolate MRSA 2, 24 hours, 1st and 2nd replicate rows) of the same compound?
**A.** 4 µg/mL

**Q.** What about the “M + R” value [2] of the same compound?
**A.** 2.25 µg/mL

**Q.** And the “Visual analysis of solubility” value ([3]; Diluent CAMHB)?
**A.** Transparent

**Q.** And the “Visual analysis of solubility” value ([3]; Diluent DMSO)?
**A.** Precipitate

**Q.** What about the “Visual analysis of solubility” value ([3]; Diluent PBS) of the same compound?
**A.** Precipitate

**Q.** And the “Visual analysis of solubility” value ([3]; Media 4% LHB:CAMHB)?
**A.** Transparent

**Q.** What about the “Visual analysis of solubility” value ([3]; Media 10% horse serum-supplemented broth) of the same compound?
**A.** Transparent

**Q.** What about the constant bactericidal concentration (S. pneumoniae strain D39; between 24 and 48 h) of the same compound?
**A.** 4 µg/mL

**Q.** And the “immediate MBC” value (S. pneumoniae strain D39; within the first 10 min of administration)?
**A.** 8 µg/mL

**Q.** And the MBC (S. pneumoniae isolates [4]; A66.1)?
**A.** 32 µg/mL

**Q.** What about the MBC (S. pneumoniae isolates [4]; D39) of the same compound?
**A.** 4 µg/mL

**Q.** What about the MBC (S. pneumoniae isolates [4]; EF3030) of the same compound?
**A.** 16 µg/mL

**Q.** What about the MBC (S. pneumoniae isolates [4]; L82016) of the same compound?
**A.** 32 µg/mL

**Q.** And the MBC (S. pneumoniae isolates [4]; P9)?
**A.** 16 µg/mL

**Q.** What about the MBC (S. pneumoniae isolates [4]; P21) of the same compound?
**A.** 4 µg/mL

**Q.** What about the MBC (S. pneumoniae isolates [4]; TIGR4) of the same compound?
**A.** 8 µg/mL

**Q.** What about the MBC (S. pneumoniae isolates [4]; WCH16) of the same compound?
**A.** 32 µg/mL

**Q.** And the MBC (S. pneumoniae isolates [4]; WCH43)?
**A.** 4 µg/mL

**Q.** And the MBC (S. pneumoniae isolates [4]; WCH46)?
**A.** 32 µg/mL

**Q.** And the MBC (S. pneumoniae isolates [4]; WCH57)?
**A.** 8 µg/mL

**Q.** What about the MBC (S. pneumoniae isolates [4]; WCH77) of the same compound?
**A.** 8 µg/mL

**Q.** And the MBC (S. pneumoniae isolates [4]; WCH86)?
**A.** 8 µg/mL

**Q.** And the MBC (S. pneumoniae isolates [4]; WCH89)?
**A.** 4 µg/mL

**Q.** And the MBC (S. pneumoniae isolates [4]; WCH92)?
**A.** 8 µg/mL

**Q.** And the MBC (S. pneumoniae isolates [4]; WCH137)?
**A.** 4 µg/mL

**Q.** And the MBC (S. pneumoniae isolates [4]; WCH158)?
**A.** 16 µg/mL

**Q.** What about the MBC (S. pneumoniae isolates [4]; WCH184) of the same compound?
**A.** 16 µg/mL

**Q.** What about the MBC (S. pneumoniae isolates [4]; WCH211) of the same compound?
**A.** 4 µg/mL

**Q.** And the MBC (S. pneumoniae isolates [4]; WU2)?
**A.** 64 µg/mL

**Q.** What about the MBC50 (S. pneumoniae isolates [4]; all S. pneumoniae isolates) of the same compound?
**A.** 16 µg/mL

**Q.** What about the MBC90 (S. pneumoniae isolates [4]; all S. pneumoniae isolates) of the same compound?
**A.** 32 µg/mL

**Q.** What about the “MBC Range” value (S. pneumoniae isolates [4]; all S. pneumoniae isolates) of the same compound?
**A.** 4 to 64 µg/mL

**Q.** And the MBC (S. pneumoniae isolates [4]; [7])?
**A.** 64 µg/mL

**Q.** And the “activity against VRE among analogues” value (VRE; MIC testing, two VRE strains)?
**A.** greatest activity

**Q.** And the VRE (VRE; bioassay ranking, VRE)?
**A.** 1.5 µg/mL

**Q.** And the “MIC (μg/ml) at 24 hours, VRE 1” value (VRE; isolate VRE 1, 24 hours, 1st and 2nd replicate rows)?
**A.** 2 µg/mL

**Q.** And the “MIC (μg/ml) at 24 hours, VRE 2” value (VRE; isolate VRE 2, 24 hours, 1st and 2nd replicate rows)?
**A.** 1 µg/mL

**Q.** For `C/C=C/C/C=C/CCC(=O)[C@H]1O[C@H]1C(N)=O` [cerulenin, Cerulenin, reference compound], which “inhibition of lipid synthesis” value [5] is on record?
**A.** 72%

**Q.** For Polymyxin B [reference compound], which “maximal ATP release” value [6] is on record?
**A.** approximately 0.34 μM

Reference: patent US10253002B2, “Compounds and methods of treating infections” (Neoculi Pty Ltd., priority 2013, dated 2019)
